Test results from US20240000765A1, “COMBINATION TREATMENT OF LIVER DISORDERS” (Terns Pharmaceuticals, Inc., priority 2020, published 2024).
pEC50, pIC50: −log10 of the molar value.

Tests used:
mouse hepatocytes = test: In vitro metabolic stability in cryopreserved hepatocytes (mouse); format: in vitro ADME; settings: well-stirred liver model
Description: (§1) In vitro half-life values were determined and scaled to predict hepatic clearance (CLpred) and hepatic extraction using the well-stirred liver model with no correction for plasma protein as described in Obach et al., The Prediction of Human Pharmacokinetic Parameters from Preclinical and In Vitro Metabolism Data, J. of Pharmacology and Experimental Therapeutics, vol. 283, no. 1, pp. 46-58 (1997).

rat hepatocytes = test: In vitro metabolic stability in cryopreserved hepatocytes (rat); format: in vitro ADME; settings: Sprague-Dawley rat hepatocytes; well-stirred liver model
Description: as §1

dog hepatocytes = test: In vitro metabolic stability in cryopreserved hepatocytes (dog); format: in vitro ADME; settings: beagle dog hepatocytes; well-stirred liver model
Description: as §1

monkey hepatocytes = test: In vitro metabolic stability in cryopreserved hepatocytes (monkey); format: in vitro ADME; settings: cynomolgus monkey hepatocytes; well-stirred liver model
Description: as §1

human hepatocytes = test: In vitro metabolic stability in cryopreserved hepatocytes (human); format: in vitro ADME; settings: well-stirred liver model
Description: as §1

[1] = Pharmacokinetics assay, rat (IV and oral); format: in vivo, Sprague-Dawley (SD) rats; settings: Sprague-Dawley rat, oral 10 mg/kg vs IV 1 mg/kg
Description: (§2) Results are shown in FIG. 1A (IV administration) and FIG. 1B (oral administration), and in Table 2. […] Smaller Vdss in monkeys is correlated with higher plasma protein binding.

[2] = Pharmacokinetics assay, dog (IV and oral); format: in vivo, beagle dogs; settings: beagle dog
Description: as §2

[3] = Tissue distribution of radiolabeled (14C) compound after oral dose; format: in vivo; settings: Long-Evans rats, oral 5 mg/kg (100 μCi/kg), up to 168 hours
Description: Plasma, liver, small intestine, cecum, kidney, lung, heart and skin tissue samples were collected up to 168 hours, and the amount of radioactive material at various time points was measured.

[4] = Metabolism and excretion of radiolabeled (14C) compound; format: in vivo; settings: SD rats, oral 5 mg/kg or IV 2 mg/kg
Description: Blood, bile, feces, and urine samples were collected from each rat for up to 168 hours.

[5] = PK/PD profile, 7 consecutive daily oral doses; format: in vivo; settings: cynomolgus monkeys, oral 1 mg/kg, 7 consecutive days
[6] = Clinical study, First Study (healthy volunteers, 14 days); format: in vivo; settings: healthy human volunteers, oral daily 5, 75, 200 or 400 mg
[7] = rat, in vivo, iv, 2 mg/kg
Description: Blood, liver, kidney, and lung tissue samples were collected from the rats to determine a tissue/plasma ratio.

[8] = Clinical study, Second Study (7 days, 7AC4); settings: for % 7AC4 suppression at nadir: human subjects
mouse model of NASH = test: Mouse model of NASH (high fat diet + CCl4), Compound 1
Description: Hematoxylin & Eosin (H&E) and Sirius Red histological staining of liver tissue was used to quantitate NAFLD activity score (NAS), steatosis, ballooning, inflammation and fibrosis. […] Gene expression of RNA was analyzed by RT-qPCR and RNAseq.
NAS is calculated based upon liver steatosis, inflammation, and ballooning and was determined by analysis of liver tissue histology using H&E stain. […] Hepatocellular ballooning is a form of liver cell injury associated with cell swelling and is also measured by H&E stained liver sections. The ballooning score is calculated as follows: 0-no hepatocyte ballooning; 1-few ballooning hepatocytes; 2-many hepatocytes with prominent ballooning.
Liver fibrosis was quantified by histological analysis of the percentage of Sirius Red-positive liver sections. […] Liver triglycerides were measured from liver tissue using a biochemical analyzer (Hitachi-700).

[9] = test system: FXR-regulated gene expression in liver and ileum; test: Mechanism of action: tissue RNA by RT-qPCR and RNAseq after a single oral dose; settings: C57BL/6 mice, 6 hours
Description: The RNA was analyzed by RT-qPCR and RNAseq.
For RNAseq analysis, mRNA was extracted from total liver and sequenced using standard Illumina library preparation and sequencing protocols. Differentially expressed genes (DEG) were determined using RSEM and edgeR software packages and analyzed using Advaita Bio's iPathwayGuide software.

THRβ = biological target: T1, THRβ (Homo sapiens, UniProt P10828); test: Binding activity to the thyroxine receptor beta; settings: ratio of binding IC50
T1 sequence (P10828 1-461): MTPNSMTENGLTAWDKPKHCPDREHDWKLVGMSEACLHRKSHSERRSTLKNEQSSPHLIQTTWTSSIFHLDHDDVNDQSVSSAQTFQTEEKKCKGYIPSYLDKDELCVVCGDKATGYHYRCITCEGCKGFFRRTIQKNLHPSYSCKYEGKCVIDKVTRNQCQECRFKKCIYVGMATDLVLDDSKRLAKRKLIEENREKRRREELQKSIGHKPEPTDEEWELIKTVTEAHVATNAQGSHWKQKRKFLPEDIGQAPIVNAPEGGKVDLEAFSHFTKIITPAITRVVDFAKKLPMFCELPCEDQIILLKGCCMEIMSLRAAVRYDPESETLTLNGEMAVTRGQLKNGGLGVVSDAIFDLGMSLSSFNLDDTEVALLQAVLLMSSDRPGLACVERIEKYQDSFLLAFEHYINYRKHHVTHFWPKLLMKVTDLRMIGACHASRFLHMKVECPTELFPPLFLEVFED

THRα [10] = biological target: T2, THRα (Homo sapiens, UniProt P10827); test: Binding activity to THRα; settings: read-out: IC50 THRα binding force
T2 sequence (P10827 1-410 isoform P10827-2): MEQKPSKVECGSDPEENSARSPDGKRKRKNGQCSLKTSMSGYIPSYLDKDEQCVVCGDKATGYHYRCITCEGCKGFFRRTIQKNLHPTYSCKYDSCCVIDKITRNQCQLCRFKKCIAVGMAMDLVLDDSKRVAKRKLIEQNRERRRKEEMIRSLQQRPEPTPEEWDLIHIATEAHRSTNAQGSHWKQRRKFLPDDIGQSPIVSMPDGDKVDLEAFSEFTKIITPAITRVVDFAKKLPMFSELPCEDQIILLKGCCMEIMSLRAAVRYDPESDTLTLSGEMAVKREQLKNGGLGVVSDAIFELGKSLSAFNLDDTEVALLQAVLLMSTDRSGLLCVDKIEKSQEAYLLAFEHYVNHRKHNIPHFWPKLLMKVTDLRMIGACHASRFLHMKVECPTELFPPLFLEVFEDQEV

THRα [11] = biological target: T2, THRα; test: Agonistic activity toward THRα; format: biochemical
[12] = Pharmacokinetic evaluation in rats, intragastric infusion; format: in vivo; settings: SD rats, intragastric 2 mg/kg
Description: Drug Preparation: a certain amount of the drug was taken and added into a 2% Klucel LF+0.1% Tween 80 aqueous solution, to prepare a clear solution or a uniform suspension.
Dosage: SD rats were fasted overnight and given the drug by intragastric infusion at an administrated dose of 2 mg/kg and an administrated volume of 10 mL/kg each.
Operation: rats were dosed by intragastric infusion with the compounds. […] The heparinized sample tubes were then stored at −20° C., and the rats were allowed to eat food 2 h after the dosage.
Determination of contents of the compounds to be tested in the plasma of rats after intragastric infusion of the drugs at different concentrations: the plasma samples were thawed at room temperature, 50 μL each was taken and added into 130 μL of an internal standard working solution (1000 ng/mL, acetonitrile, tolbutamide), and the mixture was whirled for about 1 min and then centrifugated at 4° C. and 13000 rpm for 10 min. 50 μL of the supernatant was taken and mixed with 100 μL of 50% acetonitrile water, and then introduced for LC/MS/MS analysis.

mouse NASH model = test: Mouse NASH model (high fat diet + CCl4), Compound 2; format: in vivo, C57BL/6J mice
Description: C57BL/6J mice were fed a high fat diet for 10 weeks to induce obesity (>38 g BW). Obese mice were injected intraperitoneally (i.p.) twice a week for four weeks with 0.5 μl/g 25% CCl4 (formulated in olive oil) to induce fibrosis, and one group of normal BW mice were injected i.p. twice a week for four weeks with olive oil to serve as a healthy control. During the same dosing period, obese mice were fed orally once a day for 28 days with vehicle or varying doses of Compound 2. On CCl4 dosing days, CCl4 was administered at 4 hours post compound or vehicle dosing. On day 27, all animals were fasted for about 16 hours before terminal euthanasia. On day 28, all animals were sacrificed and various biological parameters were analyzed. Total body, liver, heart and brain weight were measured and changes in liver and heart weight were normalized using brain weight. […] Liver tissue histology was analyzed for effects of Compound 2 on steatosis, inflammation and fibrosis. […] Liver samples were collected for whole transcriptome analysis by RNA sequencing (RNAseq). RNAseq library (n=5 per group) preparation and sequencing was performed using Illumina standard protocols. Alignment of sequencing reads was performed using STAR aligner software and read counts were estimated using RSEM. Differentially expressed genes (compared to vehicle-treated NASH control mice) were determined using EdgeR software. Gene ontology analysis was performed using Advaita software with fold-change and adjusted p-value cutoffs of >1.5 and <0.05, respectively. Gene ontologies were derived from the Gene Ontology Consortium database (2019 Apr. 26) (Ashbumer et al., Gene ontology: Tool for the unification of biology. Nature Genetics 25(1): 25-9 (2000); Gene Ontology Consortium, Creating the Gene Ontology Resource: Design and Implementation. Genome Research 11: 1425-1433 (2001)).

[13] = 10, 30, 100 mg/kg oral daily, 28 days
[14] = 10, 30, 100 mg/kg oral daily, 28 days, H&E
[15] = 10, 30, or 100 mg/kg oral daily, 28 days

Cn1cc(C(=O)O)c2ccc(N3CCC(OCc4c(-c5c(Cl)cccc5Cl)noc4C4CC4)CC3)cc21 [Compound 1]
Hepatic Extraction (mouse hepatocytes): 80.7 ± 1.02% | In vitro Metabolic CLpred (mouse hepatocytes): 72.7 ± 1 mL/min/kg | Hepatic Extraction (rat hepatocytes): 47.3 ± 0.78% | In vitro Metabolic CLpred (rat hepatocytes): 26.2 ± 0.5 mL/min/kg | Hepatic Extraction (dog hepatocytes): 71.0 ± 2.49% | In vitro Metabolic CLpred (dog hepatocytes): 22 ± 0.83 mL/min/kg | Hepatic Extraction (monkey hepatocytes): 64.4 ± 0.28% | In vitro Metabolic CLpred (monkey hepatocytes): 28 ± 0.17 mL/min/kg | Hepatic Extraction (human hepatocytes): 67.0 ± 1.73% | In vitro Metabolic CLpred (human hepatocytes): 13.8 ± 3.67 mL/min/kg | Oral Bioavailability [1]: 21% | CL ([2]; IV 1 mg/kg): 9 mL/min/kg | Oral Bioavailability ([2]; oral 3 mg/kg vs IV 1 mg/kg): 82% | tissues with the most radioactive material [3]: Liver, small intestine, and cecum had the most radioactive material | major elimination pathway [4]: biliary excretion | metabolite formed [4]: acyl glucuronide metabolite | pharmacodynamics biomarker 7AC4 after repeated oral dosing [5]: sustained suppression | incidences of pruritus [6]: no incidences of pruritus | change in distribution to the liver on co-administration of rifampin [7]: does not result in a significant change | Pruritus ([8]; 25 mg daily for 7 days): No | Pruritus ([8]; 75 mg daily for 7 days): No | Pruritus ([8]; 150 mg daily for 7 days): No | % 7AC4 suppression at nadir ([8]; oral 25 mg daily for 7 days): 75% | % 7AC4 suppression at nadir ([8]; oral 75 mg daily for 7 days): 82% | % 7AC4 suppression at nadir ([8]; oral 150 mg daily for 7 days): 93% | Pruritus ([8]; subjects taking the highest doses of Compound 1): no pruritus was observed | BSEP liver expression (CPM) Relative to Vehicle (mouse model of NASH; 30 mg/kg, NASH mice): 5.1 | CYP7A1 liver expression (CPM) Relative to Vehicle (mouse model of NASH; 30 mg/kg, NASH mice): 0.02 | CYP8B1 liver expression (CPM) Relative to Vehicle (mouse model of NASH; 30 mg/kg, NASH mice): 0.007 | OST-B liver expression (CPM) Relative to Vehicle (mouse model of NASH; 30 mg/kg, NASH mice): 135.7 | SHP liver expression (CPM) Relative to Vehicle (mouse model of NASH; 30 mg/kg, NASH mice): 4.6 | liver triglyceride levels (mouse model of NASH; 100 mg/kg): statistically significant reduced | serum triglyceride concentration (mouse model of NASH; 100 mg/kg): statically significant reduction | serum ALT level (mouse model of NASH; [13]): reduced | serum AST level (mouse model of NASH; [13]): reduced | ballooning vs untreated NASH mice (mouse model of NASH; [14]): significantly reduced | inflammation vs untreated NASH mice (mouse model of NASH; [14]): significantly reduced | steatosis vs untreated NASH mice (mouse model of NASH; [14]): significantly reduced | serum total cholesterol level (mouse model of NASH; 10, 30, and 100 mg/kg): statistically significant reduction | collagen, type 1, alpha 1 expression in the liver vs control NASH mice (mouse model of NASH; 10, 30, or 100 mg/kg): decreased | NAFLD Activity Score (NAS) vs untreated NASH mice (mouse model of NASH; [15]): significantly lower | liver fibrosis (Sirius Red) vs untreated NASH control (mouse model of NASH; [15]): statistically significant reduced fibrosis | expression of inflammatory and fibrosis related genes (mouse model of NASH; mouse model of NASH): reduced | induction of FXR-specific genes, liver vs ileum (RT-qPCR) ([9]; single oral 10 mg/kg): preferentially induces FXR-specific genes in the liver | number of differentially expressed NASH-related genes modulated vs vehicle (liver RNAseq) ([9]; single oral dose, Compound 1 10 mg/kg, OCA 30 mg/kg, fold change≥1.5): 500

N#Cc1nn(-c2cc(Cl)c(Oc3n[nH]c(=O)c4ccccc34)c(Cl)c2)c(=O)[nH]c1=O [Compound 2]
THRα/β selectivity (factor) (THRβ): >58.8 | pIC50 (THRα [10]): < 5.00 | pEC50 (THRα [11]): 5.40 | Curve area [12]: 24790 ± 3704 ng·h/mL | Peak blood drug concentration [12]: 2007 ± 106 ng/mL | Time to peak [12]: 4.67 ± 1.15 h | liver fibrosis (histology) (mouse NASH model; 3 and 10 mpk): significantly reduced | liver steatosis (histology) (mouse NASH model; all doses tested): significantly reduced | serum ALT (mouse NASH model; all doses tested): significantly reduced | serum total cholesterol (mouse NASH model; all doses tested): significantly reduced | serum triglycerides (mouse NASH model; all doses tested): significantly reduced | expression of genes associated with collagen extracellular matrix and hepatic stellate cell activation relative to NASH control (mouse NASH model; liver RNAseq): reducing their expression levels | heart/brain weight (mouse NASH model; oral once a day, 28 days): no effect | liver inflammation (histology) (mouse NASH model; oral once a day, 28 days): trend in inflammation reduction | liver/brain weight (mouse NASH model; oral once a day, 28 days): significantly reduced | total body weight (mouse NASH model; oral once a day, 28 days): no effect
